Experimental findings from US11225507B2, “Conformation switchable antimicrobial peptides and methods of using the same” (priority 2017, dated 2022) are described below.

The subject of data set [1] is H. pylori SS1. The experiment in a line: H. pylori killing kinetics at various pHs (CFU counting, 1 h). The class given is cell-based, Helicobacter pylori. Here is the method:
H. pylori killing kinetics at various pHs. The killing kinetics of polypeptides were measured against H. pylori by counting the colony forming units (CFU) of alive bacteria with agar plating. The polypeptides at various concentrations were dissolved in the Tris-HC buffer at various pHs (pH 7.4, 4.0, 3.0). H. pylori were then collected and dispersed in the BB medium supplied with fresh urea (10 mM) and 10% FBS at different pHs (pH 7.4, 4.0, 3.0). The optical density at 600 nm of the bacteria were fixed at 0.1. The bacteria were then incubated with the polypeptides solution at corresponding pH in the incubator supplied with 10% CO2 at 37° C. Samples were taken for a series of ten-fold dilutions, and plated out in BB agar plates with 10% FBS and vancomycin (pH 7.4) after 1 h incubation. The plates were incubated for 72 h in the incubator and the bacteria were counted for CFU. Bacteria incubated with Tris-HCl buffer only at corresponding pH were served as 100% survival. Survival rate (%)=CFU of bacteria treated with polypeptides/CFU of bacteria treated with buffer×100%. The killing kinetics of antibiotics (OAC, omeprazole, amoxicillin, clarithromycin) against H. pylori were determined with a similar procedure. The antibiotics at various concentrations were dissolved in the Tris-HCl buffer at pH 7.4, or 3.0, and were then incubated with H. pylori in BB medium supplied with fresh urea (10 mM) and 10% FBS at corresponding pH in the incubator. After 1 h incubation, the bacteria were collected by centrifuge at 10,000 rcf for 5 min and washed with fresh BB medium. Samples were then taken for a series of ten-fold dilutions, and plated out in BB agar plates with 10% FBS and vancomycin. The plates were incubated for 72 h in the incubator and the bacteria were counted for CFU.

A short description of data set [2]: Liposome dye leakage assay (ANTS/DPX efflux). Here is the method:
Liposome dye leakage assay. ANTS (12.5 mM) and DPX (45 mM) were dissolved in Tris buffer (pH=7.4). To a clean round-bottom flask, appropriate volumes of lipid stocks were added to make up 1 mL of CHCl3 (3:1 POPE (1-palmitoyl-2-oleoyl-sn-glycero-3-phosphoethanolamine)/POPG (1-palmitoyl-2-oleoyl-sn-glycero-3-phospho-(1′-rac-glycerol) (sodium salt)) vesicles, POPE (130 μL, 25 mg/mL CHCl3) and POPG (115 μL, 10 mg/mL CHCl3) were used). The solvent was removed by a stream of nitrogen gas to obtain a thin lipid film, which was then hydrated by 1 mL of ANTS/DPX solution. The mixture was left to hydrate for 1 h, after which it was subjected to 10 freeze-thaw cycles (using dry ice/acetone to freeze and warm water to thaw). The suspension was extruded 20 times through a polycarbonate membrane with 400 nm pore diameter. The excess dye was removed using Sephadex G-50 column as the eluent. The dye-filled vesicle fractions were diluted 200 times with Tris buffer. This suspension (90 μL) was subsequently mixed with polypeptide stock solutions (10 μL) at various pH (pH 7.4 or 4.0) on a 96-well black microplate (Greiner, flat bottom). Tris buffer (10 μL, pH 7.4 or 4.0) and Triton-X (0.1% v/v, 10 μL, pH 7.4 or 4.0) were employed as the negative and positive controls at corresponding pH, respectively. After 30 min, the fluorescence intensity in each well was recorded using the microplate reader with excitation and emission wavelengths of 380 and 520 nm, respectively. The percentage of leaked […] dye in each well was determined as follows: leakage (%)=[(F−F0)/(FTX−F0)]×100%, where F is the fluorescence intensity recorded in the well, F0 is the intensity in the negative control well, and FTX is the intensity in the positive control well.

In data set [3] the test system is H. pylori SS1. The experiment in a line: SEM analysis of bacterial morphology. The following applies: 30 min. The class given is cell-based, Helicobacter pylori. Here is the method:
SEM analysis. SS1 bacterial cells grown in BB with the supplement of 10% FBS under pH 7.4 or 4.0 with or without polypeptides (2.2 μM) treatment were performed using a similar protocol as killing kinetics measurements but with a 30 min incubation time. All the samples were collected into a microfuge tube and pelleted at 4000 rpm for 5 min, and then washed twice with phosphate-buffered saline. Subsequently, bacteria were fixed with paraformaldehyde solution (4%) for 1 h before proceeding, followed by washing with DI water. Dehydration was performed with a series of graded ethanol solution (10%, 25%, 50%, 75%, 95%, and 100%). The dehydrated samples were dried under vacuum overnight before being mounted on carbon tape and coated with gold-platinum for imaging using a Hitachi S-4700 High Solution SEM (Japan).

The nature of data set [4]: Toxicity of PL2 in vivo after oral gavage. Also noted: species or system mice. The following applies: mouse. From the text: Toxicity of PL2 in vivo. […] Mice were sacrificed on day 5, and the blood samples were collected for the analysis of alanine aminotransferase (ALT), aspartate aminotransferase (AST), creatinine, urea nitrogen, sodium ion and potassium ion levels. The colonic segment, stomach, liver, small intestine, kidney and feces of each mouse was gathered and homogenized with cold PBS (pH7.4). The stomachs were used to determine the expression of caspase 3 and caspase 8 using Caspase 3 Assay Kit (Sigma) and Caspase 8/FLICE Colorimetric Kit (Life technology), respectively. The colonic segment and feces were used to extract bacterial DNA. The stomach, small intestine, liver, and kidney were kept in formalin for H&E staining. The stomachs were also kept in formalin for terminal deoxynucleotidyl transferase dUTP nick end labeling (TUNEL) assay (S7100|ApopTag® Peroxidase In Situ Apoptosis Detection Kit). […] The inflammation and injury of stomach were scored by Dr. Liu in a blind manner based on the H&E staining. Inflammation was graded on a 0-3 ordinal scale based on the Sydney System as follows: chronic inflammation (mononuclear cell infiltration independent of lymphoid follicles); grade 0, no inflammation; grade 1, mild inflammation (slight increase in mononuclear cells); grade 2, moderate inflammation (dense but focal mononuclear inflammatory cells); and grade 3, severe inflammation (dense and diffuse mononuclear inflammatory cells). The appearance of the mucosa was graded as follows: 0, normal; 1, spotty changes in cellular staining characteristics of some surface epithelial cells in an otherwise normal mucosa (mild injury); 2, more generalized changes and/or disruption of the surface epithelium in several areas (moderate injury); 3, extensive mucosal destruction (severe injury).

On to (PGA)18-r-(PHLG-MHH)20 [PL2], for which, in data set [1] (pH 3.0, 1 h incubation), the “bactericidal activity against SS1” value is listed as “higher bactericidal activity”. Besides, the “bactericidal activity against SS1” value in data set [1] (pH 4.0, 1 h incubation) is “notable bacteria killing”. In data set [1] (pH 7.4, 1 h incubation), the “bactericidal activity against SS1” value is “no bactericidal activity”. Also, the “dye leakage from anionic liposomes” value in data set [2] (pH 4.0) is “great dye leakage”. The “dye leakage from anionic liposomes” value in data set [2] (pH 7.4) is recorded as “minimal dye leakage”. In addition, in data set [3] (pH 4.0, 2.2 μM), the “bacterial membrane/morphology by SEM” value is reported as “dramatic damage of the bacterial membranes”. Besides, the “bacterial membrane/morphology by SEM” value in data set [3] (pH 7.4, 2.2 μM) is reported as “minimally affected the bacterial morphology”. Moreover, in data set [4], the ALT is listed as 37.3 ± 0.5 U/L, the AST was 120.3 ± 17.9 U/L, the Creatinine worked out at 8.7 ± 0.9 µM and the Potassium ion came out at 8.1 ± 0.2 mM. Moreover, in data set [4], the Sodium ion was found to be 149.4 ± 1.6 mM; the Urea nitrogen turned out to be 6.8 ± 0.6 mM; the “histology of intestines, liver, and kidney (H&E staining)” value is recorded as “barely detectable histological abnormality”.
